Data published in patent publication US20140005103A1, “SULFONAMIDE DERIVATIVES AND METHODS OF USE THEREOF FOR IMPROVING THE PHARMACOKINETICS OF A DRUG” (Merck, Sharp & Dohme Corp., priority 2012, published 2014).
pIC50: −log10 of the molar value.

How the values were obtained:
[1] = target: CYP3A4 (Homo sapiens, UniProt P08684); experiment: IC50 vs CYP3A by inhibition of lopinavir metabolism in human liver microsomes; assay type: biochemical; settings: pH 7.4, human liver microsomes, 1.5 μM lopinavir, 8 min at 37° C., test concentrations 0.098-100 nM, read-out: 3A4(LPV)
Chain of CYP3A4 (P08684 2-503): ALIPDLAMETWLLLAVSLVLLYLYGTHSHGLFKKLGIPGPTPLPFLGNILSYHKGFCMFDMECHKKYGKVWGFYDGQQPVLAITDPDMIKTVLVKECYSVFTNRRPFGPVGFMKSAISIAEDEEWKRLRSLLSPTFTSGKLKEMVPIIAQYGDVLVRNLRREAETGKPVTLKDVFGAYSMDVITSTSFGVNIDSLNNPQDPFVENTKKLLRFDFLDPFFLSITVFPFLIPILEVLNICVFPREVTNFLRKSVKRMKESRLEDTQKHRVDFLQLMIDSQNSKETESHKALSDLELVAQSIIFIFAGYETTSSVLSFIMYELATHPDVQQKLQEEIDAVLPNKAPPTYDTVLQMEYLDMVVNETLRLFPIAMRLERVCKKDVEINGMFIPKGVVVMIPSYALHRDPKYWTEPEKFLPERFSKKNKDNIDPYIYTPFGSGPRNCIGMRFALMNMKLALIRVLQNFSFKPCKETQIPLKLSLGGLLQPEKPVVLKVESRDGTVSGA
Experimental: Determination of IC50 vs CYP3A by Measurement of Inhibition of Lopinavir Metabolism
This assay was performed in a standard 96-well plate design. IC50 values were calculated from the percent inhibition observed for each test compound at 6 concentrations (for example, 0.098, 0.391, 1.56, 6.25, 25 and 100 nM). The incubation substrate mix contains 1.5 μM lopinavir, 0.01 mg/mL protein human liver microsomes (BD Gentest), 1 mM NAPDH, 3.3 mM MgCl2 and 100 mM potassium phosphate buffer (pH 7.4). The production of the sum of three hydroxylated metabolites (M2: 6-hydroxy lopinavir, M3: 4-hydroxy lopinavir, M4: 4-hydroxy lopinavir (epimer of M3), Kumar et al., 1999) was determined after incubation for 8 min at 37° C. Quantitation of the metabolite peak area ratio against an internal standard (tolbutamide) was determined by LC/MS/MS analysis following acetonitrile treatment of the incubations.
(§1) Samples were analyzed in the MRM mode with a SCIEX API-4000 mass spectrometer (Applied Biosystems, Foster City, Calif.), with a Shimadzu LC-20 AD pump (Shimadzu corporation, Kyoto, JP) and a CTC PAL autosampler (Agilent Technologies, Switzerland). A Phenomenex, Luna, 5 μm, 100 A, 2.00×30 mm HPLC column was used for the separation. The mobile phases were: (A) 0.1% formic acid in water and (B) 0.1% formic acid in acetonitrile. The binary gradient was as follows.
(§2) The peak area ratio of the analyte to the internal standard was used to quantify the metabolite. The values of peak area ratios in the presence of test compound were compared to those of maximum or minimum controls and were expressed as % inhibition by interpolating between the maximum and minimum peak area ratios. Incubations with no inhibitor were defined as the maxima and with 5 μM ketoconazole were defined as the minima
(§3) The following equation was used to calculate the % inhibition:
(§4) [1−[(X−Low control)/(High control−Low control)]]*100
(§5) For the IC50 calculation, SigmaPlot was used to plot the mean % inhibition versus the test compound concentrations and for non-linear regression analysis of the data. Depending on the range of data points defining the inhibition curve, the data may have been fit to the 4-parameter logistic equation.

[2] = target: T1, CYP2C9 (Homo sapiens, UniProt P11712); experiment: Cocktail CYP assay, diclofenac 4'-hydroxylation; assay type: in vitro ADME; settings: human liver microsomes, 5 μM diclofenac; test concentrations up to 10 μM
T1 construct: 0.1 mg/mL protein human liver microsomes (BD Gentest); tissue BD Gentest; host or cells: human liver microsomes
T1 sequence (P11712 whole entry): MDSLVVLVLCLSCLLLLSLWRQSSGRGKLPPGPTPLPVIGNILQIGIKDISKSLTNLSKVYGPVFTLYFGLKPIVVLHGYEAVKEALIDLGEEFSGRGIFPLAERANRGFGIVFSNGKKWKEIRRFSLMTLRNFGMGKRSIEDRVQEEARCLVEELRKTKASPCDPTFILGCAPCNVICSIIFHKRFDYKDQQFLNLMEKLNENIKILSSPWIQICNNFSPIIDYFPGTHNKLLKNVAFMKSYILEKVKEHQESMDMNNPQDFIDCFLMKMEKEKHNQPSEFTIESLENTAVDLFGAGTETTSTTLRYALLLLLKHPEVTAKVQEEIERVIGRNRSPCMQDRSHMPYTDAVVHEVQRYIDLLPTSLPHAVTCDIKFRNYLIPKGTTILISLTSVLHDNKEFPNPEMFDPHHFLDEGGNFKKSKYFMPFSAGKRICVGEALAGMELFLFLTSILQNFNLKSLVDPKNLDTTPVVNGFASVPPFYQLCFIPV
Experimental: (§6) Determination of IC50 in a Cocktail Assay for CYPs 1A2, 2C9, 2C19, 2D6 and 3A4
(§7) This assay was performed in a standard 96-well plate design. IC50 values were calculated from the percent inhibition observed for each test compound at 6 concentrations (for example, 0.0032, 0.016, 0.08, 0.4, 2 and 10 μM). The incubation substrate mix contains 10 μM phenacetin (1A2), 5 μM diclofenac (2C9), 30 μM mephenyloin (2C19), 5 μM dextromethorphan (2D6) and 2 μM midazolam (3A4), 0.1 mg/mL protein human liver microsomes (BD Gentest), 1 mM NAPDH, 3.3 mM MgCl2 and 100 mM potassium phosphate buffer (pH 7.4). The production of the metabolite of each probe substrate was determined after incubation for 10 min at 37° C. Quantitation of the metabolite peak area ratio against an internal standard (tolbutamide) was determined by LC/MS/MS analysis following acetonitrile treatment of the incubations.
as §1, with “[…],” for “μm,”
as §2, with “maxima.” for “maxima and with 5 μM ketoconazole were defined as the minima”
as §3, §4, §5

[3] = target: T2, CYP2C19 (Homo sapiens, UniProt P33261); experiment: Cocktail CYP assay, mephenytoin 4'-hydroxylation; assay type: in vitro ADME; settings: human liver microsomes, 30 μM mephenytoin; test concentrations up to 10 μM
T2 construct: 0.1 mg/mL protein human liver microsomes (BD Gentest); tissue BD Gentest; host or cells: human liver microsomes
T2 sequence (P33261 whole entry): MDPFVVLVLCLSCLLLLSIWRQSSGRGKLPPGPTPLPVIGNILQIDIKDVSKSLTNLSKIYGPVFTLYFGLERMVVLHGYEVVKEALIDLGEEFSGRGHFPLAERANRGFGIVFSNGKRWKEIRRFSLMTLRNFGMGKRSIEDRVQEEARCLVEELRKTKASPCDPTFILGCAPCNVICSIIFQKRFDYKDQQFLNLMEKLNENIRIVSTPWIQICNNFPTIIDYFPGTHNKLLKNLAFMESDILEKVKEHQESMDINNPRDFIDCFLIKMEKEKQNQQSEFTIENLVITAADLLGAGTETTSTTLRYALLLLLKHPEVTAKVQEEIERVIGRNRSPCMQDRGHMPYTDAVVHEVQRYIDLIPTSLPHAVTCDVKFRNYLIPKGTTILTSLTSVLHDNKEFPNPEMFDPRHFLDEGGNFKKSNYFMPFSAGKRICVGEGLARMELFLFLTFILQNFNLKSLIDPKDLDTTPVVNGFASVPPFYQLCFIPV
Experimental: as §6, §7
as §1, with “[…],” for “μm,”
as §2, with “maxima.” for “maxima and with 5 μM ketoconazole were defined as the minima”
as §3, §4, §5

[4] = target: T3, CYP2D6 (Homo sapiens, UniProt P10635); experiment: Cocktail CYP assay, dextromethorphan O-demethylation; assay type: in vitro ADME; settings: human liver microsomes, 5 μM dextromethorphan; test concentrations up to 10 μM
T3 construct: 0.1 mg/mL protein human liver microsomes (BD Gentest); tissue BD Gentest; host or cells: human liver microsomes
T3 sequence (P10635 whole entry): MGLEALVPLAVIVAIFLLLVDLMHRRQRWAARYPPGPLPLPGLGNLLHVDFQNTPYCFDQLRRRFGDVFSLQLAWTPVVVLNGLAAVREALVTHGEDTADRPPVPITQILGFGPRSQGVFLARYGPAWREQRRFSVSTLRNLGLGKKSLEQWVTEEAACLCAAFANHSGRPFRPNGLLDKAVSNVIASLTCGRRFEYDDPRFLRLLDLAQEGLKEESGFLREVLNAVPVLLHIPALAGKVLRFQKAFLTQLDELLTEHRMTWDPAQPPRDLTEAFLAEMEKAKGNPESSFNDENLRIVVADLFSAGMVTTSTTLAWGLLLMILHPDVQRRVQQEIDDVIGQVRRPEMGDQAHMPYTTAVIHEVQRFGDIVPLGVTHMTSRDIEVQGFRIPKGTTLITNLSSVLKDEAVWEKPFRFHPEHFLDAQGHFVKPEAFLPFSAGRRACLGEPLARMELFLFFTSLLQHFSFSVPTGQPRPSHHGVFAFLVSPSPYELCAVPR
Experimental: as §6, §7
as §1, with “[…],” for “μm,”
as §2, with “maxima.” for “maxima and with 5 μM ketoconazole were defined as the minima”
as §3, §4, §5

| Compound | IC50 at 8 min [1] [nM] | pIC50 [2] | pIC50 [3] | pIC50 [4] |
| --- | --- | --- | --- | --- |
| CC1CN2C[C@H](O)C[C@H]2CN1c1ncc(S(=O)(=O)N2CCN(Cc3cncn3[C@H](C)c3ccc(F)cc3)CC2)s1 (single isomer, unassigned) [Compound 22] | 1.3 | 5.24 | 5.64 | 5.44 |
| C[C@H](c1ccc(F)cc1)n1cncc1CN1CCN(S(=O)(=O)c2cnc(N3CCNCC3)s2)CC1 [Compound 1] | 1.4 | 5.64 | 5.60 | 5.56 |
| C[C@H](c1ccc(F)cc1)n1cncc1CN1CCN(S(=O)(=O)c2cnc(N3CCN(C)CC3)s2)CC1 [Compound 2] | 1 | 5.49 | 5.74 | 5.10 |
| C[C@H](c1ccc(F)cc1)n1cncc1CN1CCN(S(=O)(=O)c2cnc(N3CCC4(CC3)CNC(=O)N4)s2)CC1 [Compound 3] | 2.7 | 5.83 | < 5.00 | 5.57 |
| C[C@H](c1ccc(C#N)cc1)n1cncc1CN1CCN(S(=O)(=O)c2cnc(Nc3ccc(C(F)(F)F)cn3)s2)CC1 [Compound 4] | < 0.1 | 5.73 | 6.14 | 5.28 |
| C[C@H](c1ccc(F)cc1)n1cncc1CN1CCN(S(=O)(=O)c2cnc(N3CCN4C[C@H](O)C[C@H]4C3)s2)CC1 [Compound 5] | 3.8 | 5.35 | 5.41 | < 5.00 |
| C[C@H](c1ccc(F)cc1)n1cncc1CN1CCN(S(=O)(=O)c2cnc(N3CCN4C[C@H](O)C[C@@H]4C3)s2)CC1 [Compound 6] | 1.4 | 5.71 | < 5.00 | < 5.00 |
| C[C@H](c1ccc(F)cc1)n1cncc1CN1CCN(S(=O)(=O)c2cnc(N3CCC(S(C)(=O)=O)C3)s2)CC1 (some centres unmarked) [Compound 8] | 1.8 | 5.46 | < 5.00 | < 5.00 |
| C[C@H](c1ccc(F)cc1)n1cncc1CN1CCN(S(=O)(=O)c2cnc(N3CCN(C4CCN(C)CC4)CC3)s2)CC1 [Compound 9] | 2.8 | 5.39 | < 5.00 | < 5.00 |
| C[C@H](c1ccc(F)cc1)n1cncc1CN1CCN(S(=O)(=O)c2cnc(N3CCN4C[C@@H](CN)C[C@H]4C3)s2)CC1 [Compound 10] | < 0.98 | 5.57 | < 5.00 | < 5.00 |
| C[C@H](c1ccc(F)cc1)n1cncc1CN1CCN(S(=O)(=O)c2cnc(N3CC[C@@H](N)[C@H](F)C3)s2)CC1 [Compound 11] | < 0.98 | 5.67 | 5.10 | < 5.00 |
| C[C@H](c1ccc(F)cc1)n1cncc1CN1CCN(S(=O)(=O)c2cnc(N3CC[C@@H]4NCCO[C@H]4C3)s2)CC1 [Compound 15] | 1.2 | 5.61 | < 5.00 | 5.45 |
| C[C@H](c1ccc(F)cc1)n1cncc1CN1CCN(S(=O)(=O)c2cnc(N3CC(=O)N4C[C@H](O)C[C@H]4C3)s2)CC1 [Compound 16] | 5.2 | 5.04 | 5.09 | < 5.00 |
| C[C@H](c1ccc(F)cc1)n1cncc1CN1CCN(S(=O)(=O)c2cnc(NCC(F)CN)s2)CC1 (some centres unmarked) [Compound 17] | 1.7 | 5.61 | 5.65 | 5.47 |
